# According to patent US9487529B2, “Macrocyclic compounds as ALK, FAK and JAK2 inhibitors” (Cephalon, Inc., priority 2011, dated 2016):
# Structures can show the parent of a compound that is named as a salt. Where two headings read alike, the source gives them in different places.
# What was measured:
# [1] = cc_pd bond, CH3CN, 120.0 °C
# recombinant human FAK = molecular target: T1, recombinant human FAK (Homo sapiens, UniProt Q05397); assay: FAK Enzyme Assay (TRF detection); assay type: biochemical; conditions: 10 μM ATP
# T1 construct: purchased Invitrogen PV3832; host or cells: baculovirus expression system
# Procedure: Example compounds were tested for their ability to inhibit the kinase activity of baculovirus-expressed recombinant human FAK using the TRF detection system as described above for JAK2. IC50 runs were performed in 96-well Costar high binding plates (#3922). The plates were coated first with 100 μL/well of 10 μg/mL neutravidin in TBS at 37° C. for 2 h, followed by 100 μL/well of 1 μg/mL 15-mer peptide substrate (biotinyl-amino-hexanoyl-EQEDEPEGDYFEWLE-amide) at 37° C. for another hour. The FAK assay mixture (total volume=100 μL/well) consisting of 20 mM HEPES, pH 7.2, 10 μM ATP, 5 mM MgCl2, 0.5 mM DTT, 0.1% BSA, and test compound (diluted in DMSO; 2.5% DMSO final in assay) was then added to the assay plate. Enzyme (10 ng/mL FAK, Invitrogen #PV3832) was added and the reaction was allowed to proceed at room temperature for 30 minutes. Detection of the phosphorylated product was performed by adding 100 μL/well of Eu—N1 labeled PY100 antibody (diluted 1:75000 in antibody dilution buffer). Samples were incubated at room temperature for 1 hour, followed by addition of 100 μL enhancement solution. Plates were agitated for 10 minutes and fluorescence of the resulting solution measured using the PerkinElmer EnVision™ 2102 (or 2104) multi-label plate reader.
# (§1) Data analysis was performed using ActivityBase (IDBS, Guilford, UK). IC50 values were calculated by plotting percent inhibition versus log10 of the concentration of compound and fitting to the nonlinear regression sigmoidal dose-response (variable slope) equation in XLFit (IDBS, Guilford, UK).
# [2] = molecular target: T2, baculovirus-expressed ALK (Homo sapiens, UniProt Q9UM73); assay: ALK Kinase Assay (ELISA/TRF); assay type: biochemical; conditions: 1 μM ATP (Km level)
# T2 construct: host or cells: baculovirus expression system
# Procedure: Briefly, each 96-well plate was coated with 100 μL/well of 10 μg/mL substrate (GST-PLC-γ) in Tris-buffered saline (TBS). […] The reaction was initiated by adding enzyme (30 ng/mL ALK) and was allowed to proceed at 37° C. for 15 minutes. Detection of the phosphorylated product was performed by adding 100 μL/well of Eu—N1 labeled PT66 antibody (Perkin Elmer #AD0041). […] Data analysis was performed using ActivityBase (IDBS, Guilford, UK). IC50 values were calculated by plotting percent inhibition versus log10 of the concentration of compound and fitting to the nonlinear regression sigmoidal dose-response (variable slope) equation in XLFit (IDBS, Guilford, UK).
# [3] = molecular target: T3, baculovirus-expressed JAK2 (Homo sapiens, UniProt O60674); assay: JAK2 Kinase Assay (TRF detection); assay type: biochemical; conditions: 0.2 μM ATP; average of two or more determinations; class symbols
# T3 construct: host or cells: baculovirus expression system
# Procedure: Compounds were tested for their ability to inhibit the kinase activity of baculovirus-expressed JAK2 using the TRF detection system. IC50 runs were conducted in 96-well Costar high binding plates (Corning Costar #3922, Corning, N.Y.). The plates were coated first with 100 μL/well of 10 μg/mL Neutravidin (Pierce #31000, Rockford, Ill.) in TBS at 37° C. for 2 hours, followed by 100 μL/well of 1 μg/mL 15-mer peptide substrate (biotinyl-amino-hexanoyl-EQEDEPEGDYFEWLE-amide, Infinity Biotech Research and Resource, Aston, Pa.) at 37° C. for another hour. The JAK2 assay mixture (total volume=100 μL/well) consisting of 20 mM HEPES, pH 7.2, 0.2 μM ATP, 1 mM MnCl2, 0.1% BSA, and test compound (diluted in DMSO; 2.5% DMSO final in assay) was then added to the assay plate. Enzyme (15 ng/ml JAK2) was added and the reaction was allowed to proceed at room temperature for 20 minutes. Detection of the phosphorylated product was performed by adding 100 μL/well of Eu—N1 labeled PY100 antibody (PerkinElmer Life Sciences #AD0041, Boston, Mass.). Incubation at the room temperature then proceeded for 1 hour, followed by addition of 100 μl enhancement solution (PerkinElmer Life Sciences #1244-105, Boston, Mass.). The plate was gently agitated and after thirty minutes, the fluorescence of the resulting solution was measured using the PerkinElmer EnVision™ 2102 (or 2104) multi-label plate reader.
# as §1
# [4] = molecular target: T4, human insulin receptor cytoplasmic domain (βIRCD) (Homo sapiens, UniProt P06213); assay: Insulin Receptor Kinase Assay (TRF); assay type: biochemical; conditions: 20 μM ATP, read-out: IR IC50
# T4 construct: human insulin receptor cytoplasmic domain (βIRCD); host or cells: baculovirus expression system
# Procedure: Example compounds were tested for their ability to inhibit the kinase activity of baculovirus-expressed human insulin receptor cytoplasmic domain (βIRCD) using the TRF assay as described above for ALK. Phosphorylation of the substrate, recombinant GST-PLC-γ, was detected with a europium-labeled anti-phosphotyrosine antibody and measured by TRF. Each 96-well plate (Greiner#655074) was coated with 100 μL/well of 20 μg/mL substrate solution in TBS. The IR assay mixture (total volume=100 μL/well) consisting of 20 mM HEPES (pH 7.2), 20 μM ATP, 5 mM MnCl2, 0.1% BSA, and test compound (diluted in DMSO; 2.5% DMSO final in assay) was added to the assay plates. Enzyme (20 ng/mL βIRCD) was added and the reaction was allowed to proceed at room temperature for 20 minutes. Detection of the phosphorylated product was performed by adding 100 μL/well of Eu—N1 labeled PY100 antibody (PerkinElmer#AD0160; diluted 1:10,000 in TBS-T containing 0.25% BSA). Incubation at 37° C. for 1 hour was followed by addition of 50 μL enhancement solution (Wallace#1244-105). Plates were agitated for 10 minutes and the fluorescence was measured using the PerkinElmer EnVision™ 2102 or 2104 multi-label plate reader.
# as §1
# [5] = average of two or more determinations, class symbols
# T2 sequence (Q9UM73 19-1620): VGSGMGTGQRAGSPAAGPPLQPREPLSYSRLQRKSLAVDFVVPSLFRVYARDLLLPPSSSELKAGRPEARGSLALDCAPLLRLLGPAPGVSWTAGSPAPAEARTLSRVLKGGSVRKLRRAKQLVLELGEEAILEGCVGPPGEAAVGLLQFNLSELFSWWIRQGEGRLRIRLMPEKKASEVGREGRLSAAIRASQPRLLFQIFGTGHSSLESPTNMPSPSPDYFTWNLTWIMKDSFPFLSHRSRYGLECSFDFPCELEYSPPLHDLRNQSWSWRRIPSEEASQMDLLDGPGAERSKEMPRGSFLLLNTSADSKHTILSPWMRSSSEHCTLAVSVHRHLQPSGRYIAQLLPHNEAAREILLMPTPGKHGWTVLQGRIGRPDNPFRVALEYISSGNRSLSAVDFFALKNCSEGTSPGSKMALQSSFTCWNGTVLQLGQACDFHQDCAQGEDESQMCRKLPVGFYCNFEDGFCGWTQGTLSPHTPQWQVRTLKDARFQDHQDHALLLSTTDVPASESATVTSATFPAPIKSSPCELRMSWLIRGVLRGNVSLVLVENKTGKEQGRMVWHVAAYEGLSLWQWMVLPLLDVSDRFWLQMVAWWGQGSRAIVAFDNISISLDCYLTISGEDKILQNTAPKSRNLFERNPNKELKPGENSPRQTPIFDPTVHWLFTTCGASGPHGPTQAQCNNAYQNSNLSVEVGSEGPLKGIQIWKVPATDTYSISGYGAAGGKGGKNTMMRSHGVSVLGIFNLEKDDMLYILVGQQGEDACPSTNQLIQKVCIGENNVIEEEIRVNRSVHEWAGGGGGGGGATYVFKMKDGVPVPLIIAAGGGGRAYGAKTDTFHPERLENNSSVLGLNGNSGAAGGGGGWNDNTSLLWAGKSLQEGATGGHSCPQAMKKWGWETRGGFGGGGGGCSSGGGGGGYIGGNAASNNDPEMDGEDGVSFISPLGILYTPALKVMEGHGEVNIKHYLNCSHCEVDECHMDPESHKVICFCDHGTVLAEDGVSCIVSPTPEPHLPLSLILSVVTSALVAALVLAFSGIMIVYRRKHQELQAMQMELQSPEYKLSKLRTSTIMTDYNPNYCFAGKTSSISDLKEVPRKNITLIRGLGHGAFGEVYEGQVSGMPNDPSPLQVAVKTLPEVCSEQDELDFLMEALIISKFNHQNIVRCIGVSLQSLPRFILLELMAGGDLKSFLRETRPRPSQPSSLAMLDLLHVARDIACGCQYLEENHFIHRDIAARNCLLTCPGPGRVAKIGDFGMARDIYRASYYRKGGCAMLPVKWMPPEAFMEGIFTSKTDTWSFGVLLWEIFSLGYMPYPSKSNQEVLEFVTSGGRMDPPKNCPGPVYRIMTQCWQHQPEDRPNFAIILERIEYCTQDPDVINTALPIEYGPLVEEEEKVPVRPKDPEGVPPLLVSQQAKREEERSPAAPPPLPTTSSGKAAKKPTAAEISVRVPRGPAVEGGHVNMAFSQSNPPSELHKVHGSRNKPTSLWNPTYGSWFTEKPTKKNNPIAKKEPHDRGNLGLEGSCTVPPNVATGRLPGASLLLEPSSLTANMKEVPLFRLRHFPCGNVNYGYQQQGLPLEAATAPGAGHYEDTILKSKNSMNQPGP
# T3 sequence (O60674 whole entry): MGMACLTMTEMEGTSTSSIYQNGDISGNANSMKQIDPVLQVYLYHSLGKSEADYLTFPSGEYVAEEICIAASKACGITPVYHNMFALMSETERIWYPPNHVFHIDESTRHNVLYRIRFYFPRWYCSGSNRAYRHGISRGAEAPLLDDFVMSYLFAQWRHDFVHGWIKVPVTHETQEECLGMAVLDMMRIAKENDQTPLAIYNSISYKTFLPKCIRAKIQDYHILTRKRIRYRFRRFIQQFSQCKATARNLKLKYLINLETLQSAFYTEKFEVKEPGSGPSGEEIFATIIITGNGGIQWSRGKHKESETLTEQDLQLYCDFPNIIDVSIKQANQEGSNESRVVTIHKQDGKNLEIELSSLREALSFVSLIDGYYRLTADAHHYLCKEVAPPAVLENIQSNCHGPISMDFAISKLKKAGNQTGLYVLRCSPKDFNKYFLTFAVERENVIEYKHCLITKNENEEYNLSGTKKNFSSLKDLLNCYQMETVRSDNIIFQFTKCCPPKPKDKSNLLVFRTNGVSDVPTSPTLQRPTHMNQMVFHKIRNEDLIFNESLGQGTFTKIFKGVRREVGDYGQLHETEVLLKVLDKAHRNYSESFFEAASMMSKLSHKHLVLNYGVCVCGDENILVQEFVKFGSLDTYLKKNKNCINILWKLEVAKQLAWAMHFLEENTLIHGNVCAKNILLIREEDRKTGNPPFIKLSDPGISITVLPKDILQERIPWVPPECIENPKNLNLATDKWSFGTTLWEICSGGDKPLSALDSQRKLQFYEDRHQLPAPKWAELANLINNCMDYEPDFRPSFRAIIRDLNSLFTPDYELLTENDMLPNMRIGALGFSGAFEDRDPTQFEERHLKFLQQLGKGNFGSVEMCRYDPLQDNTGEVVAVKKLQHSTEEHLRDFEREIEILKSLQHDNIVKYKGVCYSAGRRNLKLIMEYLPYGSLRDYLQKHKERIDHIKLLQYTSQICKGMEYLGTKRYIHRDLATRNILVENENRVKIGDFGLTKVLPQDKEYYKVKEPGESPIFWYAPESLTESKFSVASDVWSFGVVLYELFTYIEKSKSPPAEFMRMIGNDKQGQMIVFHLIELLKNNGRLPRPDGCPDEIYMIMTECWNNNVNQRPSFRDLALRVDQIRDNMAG
# T4 sequence (P06213 980-1382 limits assumed): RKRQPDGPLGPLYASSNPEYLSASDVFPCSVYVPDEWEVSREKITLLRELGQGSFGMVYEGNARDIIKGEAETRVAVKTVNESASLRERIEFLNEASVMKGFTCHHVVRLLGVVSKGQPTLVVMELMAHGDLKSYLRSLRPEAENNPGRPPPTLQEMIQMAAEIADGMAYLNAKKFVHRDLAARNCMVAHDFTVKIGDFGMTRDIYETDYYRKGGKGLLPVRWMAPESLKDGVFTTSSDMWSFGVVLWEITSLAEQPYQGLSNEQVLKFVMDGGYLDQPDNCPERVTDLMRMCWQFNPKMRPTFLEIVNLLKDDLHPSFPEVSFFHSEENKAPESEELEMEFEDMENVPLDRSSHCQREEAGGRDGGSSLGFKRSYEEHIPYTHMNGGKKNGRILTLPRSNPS
# T1 sequence (Q05397 whole entry): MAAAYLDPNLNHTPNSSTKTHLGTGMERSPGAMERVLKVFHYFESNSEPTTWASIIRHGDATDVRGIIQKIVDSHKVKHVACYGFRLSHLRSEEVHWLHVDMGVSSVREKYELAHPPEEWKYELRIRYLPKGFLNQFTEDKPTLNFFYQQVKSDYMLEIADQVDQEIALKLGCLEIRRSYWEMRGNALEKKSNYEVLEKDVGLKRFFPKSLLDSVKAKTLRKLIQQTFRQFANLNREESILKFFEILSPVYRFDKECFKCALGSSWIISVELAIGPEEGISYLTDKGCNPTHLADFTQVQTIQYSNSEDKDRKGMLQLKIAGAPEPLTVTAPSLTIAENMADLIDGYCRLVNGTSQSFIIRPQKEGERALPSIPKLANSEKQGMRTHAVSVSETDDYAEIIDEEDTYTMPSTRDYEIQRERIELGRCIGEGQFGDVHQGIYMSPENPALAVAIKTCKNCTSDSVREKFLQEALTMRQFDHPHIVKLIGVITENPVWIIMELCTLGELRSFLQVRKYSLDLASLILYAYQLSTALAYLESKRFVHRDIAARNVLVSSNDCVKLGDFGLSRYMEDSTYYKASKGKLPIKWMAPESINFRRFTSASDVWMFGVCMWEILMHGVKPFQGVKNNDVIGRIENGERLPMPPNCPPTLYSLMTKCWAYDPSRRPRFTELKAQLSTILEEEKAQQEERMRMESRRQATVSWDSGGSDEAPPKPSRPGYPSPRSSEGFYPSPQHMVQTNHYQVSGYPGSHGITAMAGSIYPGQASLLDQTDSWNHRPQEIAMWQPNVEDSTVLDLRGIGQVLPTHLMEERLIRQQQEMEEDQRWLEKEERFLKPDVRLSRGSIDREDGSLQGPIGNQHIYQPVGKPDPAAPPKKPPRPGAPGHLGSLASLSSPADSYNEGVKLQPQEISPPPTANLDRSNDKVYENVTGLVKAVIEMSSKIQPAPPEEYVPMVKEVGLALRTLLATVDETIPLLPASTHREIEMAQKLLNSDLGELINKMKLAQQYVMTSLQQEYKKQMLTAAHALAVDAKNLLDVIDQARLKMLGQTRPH
SMILES,IC50 (recombinant human FAK; [5]) [nM],"IC50 [2, 5] [nM]",IC50 [3] [nM],"IC50 [4, 5] [nM]",IC50 ([4]; given as numeric bound) [nM],IC50 ([2]; given as numeric bound) [nM],IC50 (recombinant human FAK; given as numeric bound) [nM],"ring closure, yield of all isomers ([1]; from C=Cc1ccc(S(=O)(=O)C(C)C)c(Nc2nc(Nc3cc(Br)c(N4CCN(C)CC4)cc3OC)ncc2Cl)c1, Pd(OAc)2 / tri-o-tolylphosphine, Et3N, 31.3 mM, 0.25 h) [%]","ring closure, yield of all isomers ([1]; from C=Cc1cc(Nc2ncc(Cl)c(Nc3cc(Br)ccc3N(C)S(C)(=O)=O)n2)ccc1N1CCN(C)CC1, Pd(OAc)2 / tri-o-tolylphosphine, Et3N, 65.0 mM, 2.75 h) [%]","ring closure, yield of all isomers ([1]; from C=Cc1cc(Nc2ncc(Cl)c(Nc3cc(Br)ccc3S(=O)(=O)C(C)C)n2)ccc1N1CCN(C)CC1, Pd(OAc)2 / P(o-tolyl)3 / Et3N, 65.0 mM, 2.0 h) [%]"
COc1cc(N2CCN(C)CC2)c2cc1Nc1ncc(Cl)c(n1)Nc1cc(ccc1S(=O)(=O)C(C)C)/C=C\2,–,–,–,–,–,–,–,63,–,–
"CN1CCN(c2ccc3cc2/C=C\c2ccc(N(C)S(C)(=O)=O)c(c2)Nc2nc(ncc2Cl)N3)CC1 [Example 9, (14Z)-6-Chloro-10-(2-methanesulfonyl-methyl-amino)-17-(4-methylpiperazin-1-yl)-2,4,8,22-tetraazatetracyclo[14.3.1.1^3,7.1^9,13]docosa-1(20),3(22),4,6,9(21),10,12,14,16,18-decaene Trifluoroacetate (1:1)]",< 10,10 to 100,< 10,–,> 2000,–,–,–,37,–
"Clc1cnc2nc1Nc1cccc(c1)CCc1cc(ccc1N1CCOCC1)N2 [Example 25, 6-Chloro-17-(morpholin-4-yl)-2,4,8,22-tetraazatetracyclo[14.3.1.1^3,7.1^9,13]docosa-1(20),3(22),4,6,9(21),10,12,16,18-nonaene]",> 10000,> 10000,< 10,> 10000,–,–,–,–,–,–
"O[C@@H]1c2cccc(c2)Nc2nc(ncc2Cl)Nc2cccc(c2)[C@@H]1O [Example 26, (14R,15S)-6-chloro-2,4,8,22-tetraazatetracyclo[14.3.1.1^3,7.1^9,13]docosa-1(20),3(22),4,6,9(21),10,12,16,18-nonaene-14,15-diol]",–,1000 to 10000,< 10,–,> 3000,–,> 1000,–,–,–
"COc1cc(C2CCNCC2)c2cc1Nc1ncc(Cl)c(n1)Nc1cc(ccc1N(C)S(C)(=O)=O)CC2 [Example 28, 6-Chloro-10-(2-methanesulfonyl-methyl-amino)-17-(piperidin-4-yl)-19-methoxy-2,4,8,22-tetraazatetracyclo[14.3.1.1^3,7.1^9,13]docosa-1(20),3(22),4,6,9(21),10,12,16,18-nonaene Trifluoroacetate (1:1)]",< 10,< 10,10 to 100,101 to 1000,–,–,–,–,–,–

# Further lines, with some results ahead:
IC50 (recombinant human FAK; [5]) [nM],"IC50 [2, 5] [nM]",IC50 [3] [nM],"IC50 [4, 5] [nM]",IC50 ([4]; given as numeric bound) [nM],IC50 ([2]; given as numeric bound) [nM],IC50 (recombinant human FAK; given as numeric bound) [nM],SMILES,"ring closure, yield of all isomers ([1]; from C=Cc1ccc(S(=O)(=O)C(C)C)c(Nc2nc(Nc3cc(Br)c(N4CCN(C)CC4)cc3OC)ncc2Cl)c1, Pd(OAc)2 / tri-o-tolylphosphine, Et3N, 31.3 mM, 0.25 h) [%]","ring closure, yield of all isomers ([1]; from C=Cc1cc(Nc2ncc(Cl)c(Nc3cc(Br)ccc3N(C)S(C)(=O)=O)n2)ccc1N1CCN(C)CC1, Pd(OAc)2 / tri-o-tolylphosphine, Et3N, 65.0 mM, 2.75 h) [%]","ring closure, yield of all isomers ([1]; from C=Cc1cc(Nc2ncc(Cl)c(Nc3cc(Br)ccc3S(=O)(=O)C(C)C)n2)ccc1N1CCN(C)CC1, Pd(OAc)2 / P(o-tolyl)3 / Et3N, 65.0 mM, 2.0 h) [%]"
< 10,< 10,101 to 1000,101 to 1000,–,–,–,"COc1cc(C2CCN(C)CC2)c2cc1Nc1ncc(Cl)c(n1)Nc1cc(ccc1N(C)S(C)(=O)=O)CC2 [Example 8, 6-Chloro-10-(2-methanesulfonyl-methyl-amino)-17-(1-methyl-piperidin-4-yl)-19-methoxy-2,4,8,22-tetraazatetracyclo[14.3.1.1^3,7.1^9,13]docosa-1(20),3(22),4,6,9(21),10,12,16,18-nonaene Trifluoroacetate (1:1)]",–,–,–
10 to 100,10 to 100,< 10,1000 to 10000,–,–,–,"CC(C)S(=O)(=O)c1ccc2cc1Nc1nc(ncc1Cl)Nc1ccc(N3CCN(C)CC3)c(c1)/C=C\2 [Example 11, (14Z)-6-Chloro-10-(propane-2-sulfonyl)-17-(4-methylpiperazin-1-yl)-2,4,8,22-tetraazatetracyclo[14.3.1.1^3,7.1^9,13]docosa-1(20),3(22),4,6,9(21),10,12,14,16,18-decaene Trifluoroacetate (1:1)]",–,–,32
> 10000,> 10000,< 10,> 10000,–,–,–,"COc1ccc2cc1Nc1nc(ncc1Cl)Nc1ccc(N3CCOCC3)c(c1)CC2 [Example 21, 6-Chloro-10-methoxy-17-(morpholin-4-yl)-2,4,8,22-tetraazatetracyclo[14.3.1.1^3,7.1^9,13]docosa-1(20),3(22),4,6,9(21),10,12,16,18-nonaene Trifluoroacetate (1:1)]",–,–,–
101 to 1000,101 to 1000,< 10,1000 to 10000,–,–,–,"Clc1cnc2nc1Nc1cccc(c1)/C=C\c1cc(ccc1OCCN1CCCC1)N2 [Example 22, (14Z)-6-Chloro-17-[2-(pyrrolidin-1-yl)ethoxy]-2,4,8,22-tetraazatetracyclo[14.3.1.1^3,7.1^9,13]docosa-1(20),3(22),4,6,9(21),10,12,14,16,18-decaene]",–,–,–
> 10000,–,< 10,> 10000,–,> 3000,–,"Clc1cnc2nc1Nc1cccc(c1)/C=C\c1cc(ccc1N1CCOCC1)N2 [Example 24, (14Z)-6-Chloro-17-(morpholin-4-yl)-2,4,8,22-tetraazatetracyclo[14.3.1.1^3,7.1^9,13]docosa-1(20),3(22),4,6,9(21),10,12,14,16,18-decaene]",–,–,–
10 to 100,10 to 100,101 to 1000,–,> 3000,–,–,"COc1c2cc(c3c1CC[C@@H](N1CCOCC1)CC3)CCc1ccc(N(C)S(C)(=O)=O)c(c1)Nc1nc(ncc1Cl)N2 [Example 29, N-[(20S)-6-chloro-24-methoxy-20-(morpholin-4-yl)-2,4,8,27-tetraazapentacyclo[14.8.1.1^3,7.1^9,13.0^17,23]heptacosa-1(25),3(27),4,6,9(26),10,12,16,23-nonaen-10-yl]N-methylmethanesulfonamide]",–,–,–
1000 to 10000,–,101 to 1000,–,–,> 3000,–,"FC(F)(F)c1cnc2nc1Nc1cccc(c1)CCc1cccc(c1)N2 [Example 30, 6-Trifluoromethyl-2,4,8,22-tetraazatetracyclo[14.3.1.1^3,7.1^9,13]docosa-1(20),3(22),4,6,9(21),10,12,16,18-nonaene Trifluoroacetate (1:1)]",–,–,–
